Source: US10774051B2, “6-membered heterocyclic derivatives and pharmaceutical composition comprising the same” (Shionogi & Co., Ltd., priority 2015, dated 2020)
pIC50: −log10 of the molar value.

target: human P2X7 receptor (Homo sapiens, UniProt Q99572, R270H/Y155H); assay: Evaluation of human P2X7 receptor inhibitory activity (Yo-Pro uptake, BzATP stimulation, FLIPR TETRA); format: cell-based; details: 1321N1 cells stably expressing human P2X7 receptor; BzATP stimulation, Yo-Pro uptake; read-out: IC50 (antagonistic activity for the human P2X7 receptor)
Procedure, shortened: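 1321N1 cells stably expressing human P2X7 (T606C/G952A SNP variant), in HBSS buffer pH 7.4-7.5 with Yo-Pro, stimulated with BzATP; compound added 8 min after agonist. Fluorescence followed for 20 min on FLIPR; max-minus-min change gave % inhibition, IC50 by logistic fit.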

Q: COc1cn(Cc2ccc(F)c(F)c2)c(Nc2cccc(OC(F)F)c2C)nc1=O [Compound I-0480] was tested. Which pIC50 did it give?
A: 8.40

Q: With COc1cn(Cc2cccc(Cl)c2)c(Nc2cccc3[nH]c(C)cc23)nc1=O [Compound I-0487] as the compound, how does the pIC50 read?
A: 7.60

Q: How did the pIC50 turn out when COc1cn(Cc2ccc(F)c(C)c2)c(Nc2cccc(Cl)c2C)nc1=O [Compound I-0520] was run?
A: 8.05

same assay, conditions: 1321N1 cells stably expressing human P2X7 receptor; BzATP stimulation, Yo-Pro uptake; read-out: IC50 (antagonistic activity for the human P2X7 receptor), class symbol

Q: How did the pIC50 turn out when COc1cc(C)cc(Nc2nc(=O)c(OC)cn2Cc2ccc(F)c(Cl)c2)c1C [Compound I-0460] was run?
A: 7.00 to 8.00

Q: With COc1cn(Cc2cc(C)cc(F)c2)c(Nc2cccc(Cl)c2C)nc1=O [Compound I-0461] as the compound, how does the pIC50 read?
A: > 8.00

Q: How did the pIC50 turn out when COc1cn(Cc2ccccc2OC(F)F)c(Nc2cccc(Cl)c2C)nc1=O [Compound I-0462] was run?
A: 7.00 to 8.00

Q: How did the pIC50 turn out when COc1cn(Cc2ccccc2COC(F)F)c(Nc2cccc(Cl)c2C)nc1=O [Compound I-0463] was run?
A: > 8.00

Q: How did the pIC50 turn out when COc1cn(Cc2ccccc2)c(Nc2cc(Cl)c(Cl)cc2C)nc1=O [Compound I-0464] was run?
A: > 8.00

Q: How did the pIC50 turn out when COc1cc(C)cc(Nc2nc(=O)c(OC)cn2Cc2ccc(F)c(Cl)c2)c1C [Compound I-0465] was run?
A: > 8.00

Q: How did the pIC50 turn out when COc1cn(Cc2cc(C)cc(F)c2)c(Nc2cccc(Cl)c2C)nc1=O [Compound I-0466] was run?
A: 7.00 to 8.00

Q: How did the pIC50 turn out when COc1cn(Cc2ccc(F)c(F)c2)c(Nc2cccc(C(F)(F)F)c2C)nc1=O [Compound I-0467] was run?
A: > 8.00

Q: With COc1cn(Cc2ccc(F)c(Cl)c2)c(Nc2cccc(C(F)(F)F)c2C)nc1=O [Compound I-0468] as the compound, how does the pIC50 read?
A: 7.00 to 8.00

Q: COc1cc(C)c(Nc2nc(=O)c(OC)cn2Cc2cc(F)cc(Cl)c2)cc1OC [Compound I-0469] was tested. Which pIC50 did it give?
A: > 8.00

Q: With COc1cn(Cc2cc(F)cc(F)c2)c(Nc2cccc(C(F)(F)F)c2C)nc1=O [Compound I-0470] as the compound, how does the pIC50 read?
A: 7.00 to 8.00

Q: With Cc1c(Cl)cccc1Nc1nc(=O)c(F)cn1Cc1ccc(F)c(F)c1 [Compound I-0471] as the compound, how does the pIC50 read?
A: > 8.00

Q: Cc1c(Cl)cccc1Nc1nc(=O)c(Cl)cn1Cc1ccc(F)c(F)c1 [Compound I-0472] was tested. Which pIC50 did it give?
A: > 8.00

Q: How did the pIC50 turn out when COc1cc(Nc2nc(=O)c(OC)cn2Cc2ccccc2)c(C)cc1Cl [Compound I-0473] was run?
A: > 8.00

Q: COc1cn(Cc2ccccc2OC(F)F)c(Nc2cccc(Cl)c2C)nc1=O [Compound I-0474] was tested. Which pIC50 did it give?
A: > 8.00

Q: COc1cn(Cc2ccccc2COC(F)F)c(Nc2cccc(Cl)c2C)nc1=O [Compound I-0475] was tested. Which pIC50 did it give?
A: > 8.00

Q: How did the pIC50 turn out when COc1cn(Cc2ccccc2)c(Nc2cc(Cl)c(Cl)cc2C)nc1=O [Compound I-0476] was run?
A: > 8.00

Q: COc1cc(C)cc(Nc2nc(=O)c(OC)cn2Cc2ccc(F)c(Cl)c2)c1C [Compound I-0477] was tested. Which pIC50 did it give?
A: > 8.00

Q: COc1cn(Cc2cc(C)cc(F)c2)c(Nc2cccc(Cl)c2C)nc1=O [Compound I-0478] was tested. Which pIC50 did it give?
A: > 8.00

Q: With COc1cn(Cc2cccc(Cl)c2)c(Nc2cccc(OC(F)F)c2C)nc1=O [Compound I-0479] as the compound, how does the pIC50 read?
A: 7.00 to 8.00

Q: COc1cn(Cc2cccc(Cl)c2)c(Nc2cccc(C)c2Cl)nc1=O [Compound I-0481] was tested. Which pIC50 did it give?
A: 7.00 to 8.00

Q: How did the pIC50 turn out when COc1cn(Cc2ccc(F)c(F)c2)c(Nc2cccc(C)c2Cl)nc1=O [Compound I-0482] was run?
A: > 8.00

Q: COc1cn(Cc2ccc(F)c(Cl)c2)c(Nc2cccc(C)c2Cl)nc1=O [Compound I-0483] was tested. Which pIC50 did it give?
A: > 8.00

Q: How did the pIC50 turn out when COc1cn(Cc2cccc(Cl)c2)c(Nc2cccc3sccc23)nc1=O [Compound I-0484] was run?
A: 7.00 to 8.00

Q: With COc1cn(Cc2ccc(F)c(F)c2)c(Nc2cccc3sccc23)nc1=O [Compound I-0485] as the compound, how does the pIC50 read?
A: > 8.00

Q: With COc1cn(Cc2ccc(F)c(Cl)c2)c(Nc2cccc3sccc23)nc1=O [Compound I-0486] as the compound, how does the pIC50 read?
A: > 8.00

Q: With COc1cn(Cc2ccc(F)c(F)c2)c(Nc2cccc3[nH]c(C)cc23)nc1=O [Compound I-0488] as the compound, how does the pIC50 read?
A: 7.00 to 8.00

Q: COc1cn(Cc2ccc(F)c(Cl)c2)c(Nc2cccc3[nH]c(C)cc23)nc1=O [Compound I-0489] was tested. Which pIC50 did it give?
A: > 8.00

Q: With COc1cn(Cc2cccc(Cl)c2)c(Nc2cc3[nH]ncc3cc2C)nc1=O [Compound I-0490] as the compound, how does the pIC50 read?
A: > 8.00

Q: How did the pIC50 turn out when COc1cn(Cc2ccc(F)c(F)c2)c(Nc2cc3[nH]ncc3cc2C)nc1=O [Compound I-0491] was run?
A: > 8.00

Q: COc1cn(Cc2ccc(F)c(Cl)c2)c(Nc2cc3[nH]ncc3cc2C)nc1=O [Compound I-0492] was tested. Which pIC50 did it give?
A: > 8.00

Q: With COc1cn(Cc2ccccc2)c(Nc2cc(OCC(F)(F)F)ccc2C)nc1=O [Compound I-0493] as the compound, how does the pIC50 read?
A: 7.00 to 8.00

Q: COc1cn(Cc2cccc(Cl)c2)c(Nc2cc(OCC(F)(F)F)ccc2C)nc1=O [Compound I-0494] was tested. Which pIC50 did it give?
A: 7.00 to 8.00

Q: How did the pIC50 turn out when COc1cn(Cc2ccc(F)c(F)c2)c(Nc2cc(OCC(F)(F)F)ccc2C)nc1=O [Compound I-0495] was run?
A: 7.00 to 8.00

Q: With COc1cn(Cc2cc(F)cc(F)c2)c(Nc2cc(OCC(F)(F)F)ccc2C)nc1=O [Compound I-0496] as the compound, how does the pIC50 read?
A: 7.00 to 8.00

Q: COc1cn(Cc2ccc(F)c(Cl)c2)c(Nc2cc(OCC(F)(F)F)ccc2C)nc1=O [Compound I-0497] was tested. Which pIC50 did it give?
A: 7.00 to 8.00

Q: How did the pIC50 turn out when COc1ccc(Nc2nc(=O)c(OC)cn2Cc2ccccc2)c(C)c1C [Compound I-0499] was run?
A: 7.00 to 8.00

Q: How did the pIC50 turn out when COc1cn(Cc2ccccc2)c(Nc2cc(C(C)(C)C)ccc2C)nc1=O [Compound I-0500] was run?
A: 7.00 to 8.00

Q: With COc1cn(Cc2ccc(F)c(Cl)c2)c(Nc2cc(C(C)(C)C)ccc2C)nc1=O [Compound I-0501] as the compound, how does the pIC50 read?
A: 7.00 to 8.00

Q: How did the pIC50 turn out when COc1cn(Cc2ccc(F)c(Cl)c2)c(Nc2cc(C)cc(C)c2C)nc1=O [Compound I-0502] was run?
A: 7.00 to 8.00

Q: COc1cn(Cc2ccc(F)c(F)c2)c(Nc2cc(C)c(F)cc2C)nc1=O [Compound I-0503] was tested. Which pIC50 did it give?
A: > 8.00

Q: With COc1cn(Cc2cc(F)cc(F)c2)c(Nc2cccc(OC(F)F)c2C)nc1=O [Compound I-0504] as the compound, how does the pIC50 read?
A: > 8.00

Q: How did the pIC50 turn out when COc1cn(Cc2cc(F)cc(F)c2)c(Nc2cccc(C)c2Cl)nc1=O [Compound I-0505] was run?
A: 7.00 to 8.00

Q: With COc1cn(Cc2cccc(Cl)c2)c(Nc2cc(C)c(F)cc2C)nc1=O [Compound I-0506] as the compound, how does the pIC50 read?
A: > 8.00

Q: With COc1cn(Cc2ccc(F)c(Cl)c2)c(Nc2cc(C)c(F)cc2C)nc1=O [Compound I-0507] as the compound, how does the pIC50 read?
A: > 8.00

Q: With COc1cn(Cc2cc(F)cc(Cl)c2)c(Nc2cc(C)c(F)cc2C)nc1=O [Compound I-0508] as the compound, how does the pIC50 read?
A: 7.00 to 8.00

Q: With COc1cccc(Nc2nc(=O)c(OC)cn2Cc2cc(F)cc(Cl)c2)c1C [Compound I-0509] as the compound, how does the pIC50 read?
A: > 8.00

Q: With COc1cc(Nc2nc(=O)c(OC)cn2Cc2cc(F)cc(F)c2)c(C)cc1Cl [Compound I-0510] as the compound, how does the pIC50 read?
A: > 8.00

Q: COc1cn(Cc2ccc(F)c(Cl)c2)c(Nc2cccc(OC(F)F)c2C)nc1=O [Compound I-0511] was tested. Which pIC50 did it give?
A: > 8.00

Q: How did the pIC50 turn out when COc1cn(Cc2ccccc2)c(Nc2cc(SC(F)(F)F)ccc2C)nc1=O [Compound I-0512] was run?
A: 6.30 to 7.00

Q: With COc1cn(Cc2ccccc2)c(Nc2cc(S(C)(=O)=O)ccc2C)nc1=O [Compound I-0513] as the compound, how does the pIC50 read?
A: 6.30 to 7.00

Q: With COc1cn(Cc2cc(F)cc(F)c2)c(Nc2cccc(OC(C)C)c2C)nc1=O [Compound I-0514] as the compound, how does the pIC50 read?
A: 7.00 to 8.00

Q: With COc1cn(Cc2ccc(F)c(Cl)c2)c(Nc2cccc(OC(C)C)c2C)nc1=O [Compound I-0515] as the compound, how does the pIC50 read?
A: 7.00 to 8.00

Q: With COc1cn(Cc2ccc(F)c(F)c2)c(Nc2ccc(OC(F)F)cc2C)nc1=O [Compound I-0516] as the compound, how does the pIC50 read?
A: 7.00 to 8.00

Q: With COc1c(C)ccc(Nc2nc(=O)c(OC)cn2Cc2ccc(F)c(F)c2)c1C [Compound I-0517] as the compound, how does the pIC50 read?
A: > 8.00

Q: With COc1cn(Cc2ccc(F)c(F)c2)c(Nc2cc(Cl)c(Cl)cc2C)nc1=O [Compound I-0518] as the compound, how does the pIC50 read?
A: 7.00 to 8.00

Q: COc1cn(Cc2ccc(F)c(F)c2)c(Nc2ccc(N3CCOCC3)cc2C)nc1=O [Compound I-0519] was tested. Which pIC50 did it give?
A: 7.00 to 8.00
